Results on 1 compound are retold here after patent publication US11498919B2, “Azaindolylpyridone and diazaindolylpyridone compounds” (Sprint Bioscience AB, priority 2017, dated 2022).

In one assay the target is Vps34 enzyme (Homo sapiens (Human), UniProt Q8NEB9). Description: Vps34 Biochemical Assay (Adapta kinase assay, TR-FRET). As to conditions: 20 μM ATP and 200 μM PI:PS in substrate mix, 1 h at room temperature, read-out: Median IC50 nM Adapta. The method, then: Dilution series of compounds of the invention were prepared in DMSO at 100 times the final assay concentration (n1=n0/3 in 10 points). The compounds were further diluted to 4 times the assay concentration in assay buffer (Life technologies buffer Q, PV5125, diluted 5 times supplemented with 2 mM DTT and 2 mM MnCl2). 2.5 μl of the diluted compounds were added to a 384 well assay plate followed by 2.5 μl of 16.5 nM Vps34 enzyme (Life technologies, PV5126). Enzyme and compounds were pre-incubated at rt for 15 min. Then 5 μl of substrate mix containing 20 μM ATP (Life technologies, PV3227) and 200 μM PI:PS substrate (Life technologies, PV5122) in assay buffer was added to the wells containing compound and enzyme. Mixing was performed by pipetting several times. The reaction was incubated at room temperature for 1 h. Then 5 μl stop-detection mix, prepared as described in the Adapta kinase assay kit instructions (Life technologies, PV5099) containing Adapta Eu-anti-ADP antibody (2.3 nM), Alexa Fluor 647 ADP tracer (9 nM) and EDTA (30 mM) in TR-FRET buffer, was added to quench the reaction. Mixing was performed by pipetting several times. The assay plate was then incubated at room temperature for 30 min and read with Artemis micro plate reader. Percent inhibition of the compounds as compared to DMSO treated control samples was calculated. By the use of Dotmatics software compound concentration versus percent inhibition was fitted to generate IC50 values.
Chain of Vps34 enzyme (Q8NEB9 whole entry): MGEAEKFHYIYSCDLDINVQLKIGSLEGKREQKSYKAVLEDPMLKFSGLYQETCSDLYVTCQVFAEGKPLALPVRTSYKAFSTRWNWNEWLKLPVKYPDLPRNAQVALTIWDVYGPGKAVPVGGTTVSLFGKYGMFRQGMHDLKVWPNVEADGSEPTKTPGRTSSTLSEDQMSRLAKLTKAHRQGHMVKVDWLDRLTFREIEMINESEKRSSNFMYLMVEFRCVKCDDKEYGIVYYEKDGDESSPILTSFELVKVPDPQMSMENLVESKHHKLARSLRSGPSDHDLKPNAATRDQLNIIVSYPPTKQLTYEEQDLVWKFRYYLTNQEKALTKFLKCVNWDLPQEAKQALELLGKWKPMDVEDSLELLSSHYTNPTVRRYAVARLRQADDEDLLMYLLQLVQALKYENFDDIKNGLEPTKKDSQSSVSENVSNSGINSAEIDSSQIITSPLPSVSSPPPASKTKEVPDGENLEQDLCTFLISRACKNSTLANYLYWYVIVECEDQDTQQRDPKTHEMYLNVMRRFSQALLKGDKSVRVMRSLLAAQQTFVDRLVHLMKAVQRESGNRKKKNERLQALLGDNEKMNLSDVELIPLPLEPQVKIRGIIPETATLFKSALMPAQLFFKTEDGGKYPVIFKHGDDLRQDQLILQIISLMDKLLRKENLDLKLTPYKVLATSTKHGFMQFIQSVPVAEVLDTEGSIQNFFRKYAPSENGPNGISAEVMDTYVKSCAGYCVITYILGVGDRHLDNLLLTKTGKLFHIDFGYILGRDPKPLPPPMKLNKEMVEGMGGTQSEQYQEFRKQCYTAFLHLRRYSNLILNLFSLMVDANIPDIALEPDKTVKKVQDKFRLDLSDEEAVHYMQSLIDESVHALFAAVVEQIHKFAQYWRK
For orientation: In TR-FRET formats the signal depends on donor and acceptor labels being close together.

Assay [1] deals with Human osteosarcoma cells (HOS) stably expressing GFP-LC3. Briefly: High Content Screening Autophagy Assay (GFP-LC3 foci). Particulars: autophagy in HOS cells, activated with KU-0063794 500 nM plus Bafilomycin A1 5 nM, 6 hours, LC3-GFP foci area per cell, read-out: Median IC50 (nM) Cellular assay. The assay is classed as cell-based. On the procedure: Human osteosarcoma cells (HOS) stably expressing a Green Fluorescent Protein (GFP) tagged LC3 (GFP-LC3) were used to determine the inhibitory effect on autophagy of proprietary compounds. For that purpose, autophagy was activated by using the mTOR inhibitor KU-0063794 at 500 nM in the presence of Bafilomycin A1 (Sigma-Aldrich) at 5 nM. Shortly, cells were plated overnight in clear bottom 96-well plates in DMEM—High Modified media (Hi-Clone Cat #SH30285.01). At the start of the experiment, the media was removed and replaced with fresh media containing the mTOR inhibitor, Bafilomycin A1 and the vehicle or a test compound as indicated. After 6 hours the media was removed, cells were washed twice with ice-cold phosphate buffered saline (PBS) and fixed with 4% paraformaldehyde for 20 minutes at room temperature. Then the cells were washed twice with ice-cold PBS before adding Hoechst 33342 at 1 μg/ml in PBS for nuclear staining. After incubation overnight at 4° C., cells were washed once with PBS to remove the excess of dye and 100 μl of PBS was added to each well. Images were acquired at 20× magnification, 6 images per well, using the ImageXpress automated microscope (Molecular Devices Inc.) and analyzed with MetaXpress software to identify LC3-GFP foci. Foci area per cell values were used to generate dose response curves and IC50 values were calculated using the non-linear fitting analysis in GraphPad Prism software. […] The results of the assay are shown in Table 2 (Median IC50 nM HOS-LC3).

For orientation: IC50 means the concentration needed to halve the response being measured. As for `O=c1cc(-c2ccnc3[nH]ncc23)cc(-c2ccccc2C(F)(F)F)[nH]1` [Example 82, 4-(1H-pyrazolo[3,4-b]pyridin-4-yl)-6-[2-(trifluoromethyl)phenyl]-1H-pyridin-2-one], the half-maximal inhibitory concentration (IC50) on Vps34 enzyme is < 5 nM; in assay [1], 485 nM.
